“Also recorded” adds a separate entry of the source.
Assays:
adiponectin multimers [1] = molecular target: T1, adiponectin multimers (Homo sapiens, UniProt Q15848); assay: Lean control / healthy subjects' serum incubated 1 hour with 90 μM cysteamine, adiponectin multimers; assay type: biochemical
T1 construct: from tissue; host or cells: human serum (pretreatment NAFLD subjects; adults without NAFLD)
T1 sequence (Q15848 19-244): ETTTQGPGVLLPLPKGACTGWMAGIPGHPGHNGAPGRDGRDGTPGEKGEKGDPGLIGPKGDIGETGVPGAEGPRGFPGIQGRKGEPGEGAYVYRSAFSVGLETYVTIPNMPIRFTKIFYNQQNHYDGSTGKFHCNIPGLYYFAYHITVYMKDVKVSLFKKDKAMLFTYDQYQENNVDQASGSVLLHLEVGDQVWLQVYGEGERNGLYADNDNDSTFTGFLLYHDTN
Experimental: (§1) Total and multimeric adiponectin levels were measured in serum taken from: (1) subject with NAFLD collected at 0 and 24 wks of cysteamine therapy and again 16 wks after stopping therapy (i.e., 40 weeks); (2) pretreated 0-week subjects with NAFLD and adults without NAFLD at room temperature and at 37° C. and also after incubation with cysteamine 90 μM for 1 hour at 37° C.; and (3) pretreated 0-week subjects with NAFLD before and after incubation with cysteamine at varying concentrations (15, 30, 45, 60, 90, 120 μM) for 1 hour at 37° C. to establish dose-response profile.
(§2) Sodium dodecyl sulfate polyacrylamide gel electrophoresis (SDS-PAGE) was performed according to standard Laemmli's method. Sample buffer for non-reducing, non-heat denaturing conditions contained 3% SDS; 50 mmol/1 Tris-HCL, pH 6.8 and 20% glycerol. Proteins were separated using 3-8% Tris-Acetate Gels (Invitrogen, Carlsbad Calif.) with Tris-Acetate running buffer per manufacturer instructions. For immunoblotting, proteins were transferred to nitrocellulose membranes. Membranes were washed with Tween (Tris-buffered Saline, 0.1% […]) and incubated with monoclonal antibody (1:500 BD Transduction Laboratories, San Diego, Calif.). After washing with Tris-buffered saline with 0.1% Tween (4×5 min) membranes were incubated with L-COR secondary antibodies (LI-COR Biotechnology, Lincoln Nebr.) at 1:20,000. Adiponectin multimers were detected and quantified using the LICOR imager and software analysis program. Relative distribution of adiponectin multimers was determined by dividing band density by total density (cellular adiponectin) or by total adiponectin as determined by ELISA (Millipore, Billerica, Mass.). The percentage of adionectin multimer was then multiplied by the total adiponectin level to calculate absolute oligomer value.
(§3) In another experiment, 25 μl total sample volume (5 μl diluted serum+15 μl water+5 μl 5×LB) was incubated with or without cysteamine at 37° C.×1 hr. A control was prepared without cysteamine and incubated at room temperature for 1 hour on the bench. The preparations were then run on 2×15-well 1.5 mm 3-8% Tris-acetate gels. Primary antibody—mouse anti-adiponectin 1:500, overnight at 4° C. and secondary antibody—goat anti-mouse IR800 1:20,000.

[2] = design: species or system mice (C57BL/6); conditions: mouse, in vivo
adiponectin multimers [3] = molecular target: T1, adiponectin multimers; assay: Gastric Banding (GB) serum incubated with cysteamine, adiponectin multimers by western blot; assay type: biochemical; conditions: 37° C. + 45 μM cysteamine, 1 hr
Experimental: as §3
To determine threshold dose of cysteamine on reduction of serum adiponectin multimers, serum was collected and incubated with various concentrations of cysteamine. Six microliters of diluted GB serum was incubated with 24 μl water and various concentrations of cysteamine. Samples, were incubate in a tissue culture incubator for 1 hr at 37° C. with a control tube having no cysteamine addition. To each tube was then added 5 μl of 5× non-reducing loading buffer. The samples were vortexed and loaded on a 3-8% tris-Acetate gel and run for 75 min at 125 V constant current. The gel was transferred and blocked. The blot was then incubated overnight with anti-adiponectin antibody 1:500 in 3% BSA/TBS. The blot was washed and incubated with a secondary anti-mouse antibody for 1 hour. Densitometry was performed on a LICOR densitometer.

adiponectin multimers [4] = molecular target: T1, adiponectin multimers; assay: Pretreatment serum of subjects with NAFLD incubated 1 hour with cysteamine, adiponectin multimers; assay type: biochemical
Experimental: as §1, §2

adiponectin multimers [5] = molecular target: T1, adiponectin multimers; assay: Dose response profile: NAFLD serum incubated with varying cysteamine concentrations, adiponectin multimers; assay type: biochemical; conditions: 1 hour at 37° C.
Experimental: as §1, §2

[6] = lean control serum, 37° C. + 90 μM cysteamine, 1 hr
[7] = NAFLD serum (n=10), cysteamine 1 hour at 37° C. (45 μM in FIG. 13), P<0.0001

With `NCCS` [cysteamine, Cysteamine] the “mean percentage of total adiponectin comprised of LMW after incubation” value (adiponectin multimers [1]; healthy subjects, 90 μM cysteamine 1 hour, before 11.1%) was 18.0%, the “mean percentage of total adiponectin comprised of HMW after incubation” value (adiponectin multimers [1]; healthy subjects, 90 μM cysteamine 1 hour, before 42.9%) was 42.7% and the “mean percentage of total adiponectin comprised of MMW after incubation” value (adiponectin multimers [1]; healthy subjects, 90 μM cysteamine 1 hour, before 46.0%) was 39.3%. The “LMW adiponectin absolute level change” value (adiponectin multimers [1]; [6]) was “no significant change”, the “MMW adiponectin absolute level change” value (adiponectin multimers [1]; [6]) was “significant decrease” and the “LMW adiponectin mean percent change vs baseline” value (adiponectin multimers [1]; lean control/healthy serum, 90 μM cysteamine, 1 hr, P<0.005) was “increase; also recorded: significant percent change”. The “MMW adiponectin mean percent change vs baseline” value (adiponectin multimers [1]; lean control/healthy serum, 90 μM cysteamine, 1 hr, P<0.01) was “reduction; also recorded: significant percent change”, the “HMW adiponectin level change” value (adiponectin multimers [1]; lean control/healthy serum, 37° C. + 90 μM cysteamine, 1 hr) was “unchanged; also recorded: no significant change” and the body weight reduction [2] was 14%. For the same compound, the mean terminal weight [2] was 18.3 g, the HMW adiponectin change (adiponectin multimers [3]; p=0.009) was “significantly decrease” and the LMW adiponectin change (adiponectin multimers [3]; p=0.05) was “significantly increase”. For the same compound, the “HMW adiponectin level change” value (adiponectin multimers [4]; NAFLD pretreatment serum, cysteamine 1 hour at 37° C.) was “unchanged”, the “LMW adiponectin mean percent change vs pretreatment” value (adiponectin multimers [4]; [7]) was “increase” and the “MMW adiponectin mean percent change vs pretreatment” value (adiponectin multimers [4]; [7]) was “significant reduction”. The “mean percentage of total adiponectin comprised of HMW after incubation” value (adiponectin multimers [4]; NAFLD serum, cysteamine 1 hour at 37° C., before 8.2%) was 8.6%, the “mean percentage of total adiponectin comprised of LMW after incubation” value (adiponectin multimers [4]; NAFLD serum, cysteamine 1 hour at 37° C., before 28.5%) was 36.7% and the “mean percentage of total adiponectin comprised of MMW after incubation” value (adiponectin multimers [4]; NAFLD serum, cysteamine 1 hour at 37° C., before 63.3%) was 54.7%. The “HMW level vs baseline” value (adiponectin multimers [5]; 120 μM cysteamine) was “reductions”, the “MMW level vs baseline” value (adiponectin multimers [5]; 120 μM cysteamine) was “reductions” and the “greatest percent increase in LMW” value (adiponectin multimers [5]; 120 μM cysteamine) was 77%. For the same compound, the “MMW levels vs baseline” value (adiponectin multimers [5]; all cysteamine concentrations (15-120 μM)) was “lower than baseline”, the “mean LMW level increase above baseline” value (adiponectin multimers [5]; all cysteamine concentrations used (15-120 μM)) was greater than 60% and the “HMW level increase above baseline” value (adiponectin multimers [5]; cysteamine 15, 30, 45, and 60 μM) was “about 10%”.

Source: patent US20140322315A1, “CYSTEAMINE AND/OR CYSTAMINE FOR TREATING ISCHEMIC INJURY” (The Regents of the University of California, priority 2011, published 2014)
